# Test results reported in patent US10689378B2, “Triazolopyridine compounds and uses thereof” (Novartis AG, priority 2016, dated 2020).
# Tests used:
# [1] = target: wild type PRC2 (wtPRC2) complex (Homo sapiens, UniProt O75530); assay: EED LC-MS assay (SAH production by PRC2); format: biochemical; conditions: read-out: (b) IC50, EED LC-MS Qualified
# Outline: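 LC-MS/MS readout of SAH (d4-SAH standard) after TFA quench gives PRC2 activity, normalized to controls and fitted to dose-response for IC50. Reaction: 12 nM EZH2/SUZ12/EED/Rbap48/AEBP complex, 1 μM SAM, 1.5 μM H3[21-44] peptide, 120 min rt, 20 min compound preincubation.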
# [2] = tested on: H3K27 methylation in G401 cell; assay: ELISA (H3K27 methylation) assay in G401 cells; format: cell-based, human; conditions: Homo sapiens, G-401, read-out: (c) IC50, ELISA Qualified
# Outline: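 IC50 from dose-response fit of percent inhibition relative to DMSO, using H3K27me3/me2 ELISA signal (ECL) normalized to histone H3. Histones HCl-extracted after 48 h compound exposure of G401 cells at up to 20 μM, 8- or 12-point 3-fold series.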
# EED (1-441)-His protein = target: T1, EED (1-441)-His protein (Homo sapiens, UniProt O75530); assay: EED-H3K27Me3 peptide competition binding assay by AlphaScreen; conditions: read-out: (a) IC50, EED Alphascreen binding Qualified
# T1 construct: 30 nM EED (1-441)-His protein
# Outline: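 Serially diluted compound (12 points, 3-fold) incubated 20 min with 30 nM EED(1-441)-His and 15 nM biotin-H3K27Me3(19-33) peptide in 25 mM HEPES pH 8, 0.02% Tween-20, 0.5% BSA. Ni-chelate acceptor/streptavidin donor beads (10 μg/mL each) added, 1 h rt dark; 615 nm emission normalized to controls, dose-response fit for IC50.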
# T1 sequence (O75530 whole entry): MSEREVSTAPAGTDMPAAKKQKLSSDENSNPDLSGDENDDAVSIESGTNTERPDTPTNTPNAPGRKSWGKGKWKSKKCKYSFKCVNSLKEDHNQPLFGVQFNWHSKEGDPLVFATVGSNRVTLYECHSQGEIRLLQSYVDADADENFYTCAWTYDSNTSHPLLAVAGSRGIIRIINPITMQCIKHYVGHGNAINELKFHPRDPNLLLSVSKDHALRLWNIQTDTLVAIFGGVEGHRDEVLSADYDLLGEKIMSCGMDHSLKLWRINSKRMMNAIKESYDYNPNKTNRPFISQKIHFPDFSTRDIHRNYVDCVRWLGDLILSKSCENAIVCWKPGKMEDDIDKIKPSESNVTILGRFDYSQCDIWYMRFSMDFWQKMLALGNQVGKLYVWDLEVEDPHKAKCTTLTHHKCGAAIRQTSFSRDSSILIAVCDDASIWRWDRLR
# wild type PRC2 (wtPRC2) complex, sequence (O75530 whole entry): as above
# wild type PRC2 (wtPRC2) complex, sequence (Q15910 whole entry partner): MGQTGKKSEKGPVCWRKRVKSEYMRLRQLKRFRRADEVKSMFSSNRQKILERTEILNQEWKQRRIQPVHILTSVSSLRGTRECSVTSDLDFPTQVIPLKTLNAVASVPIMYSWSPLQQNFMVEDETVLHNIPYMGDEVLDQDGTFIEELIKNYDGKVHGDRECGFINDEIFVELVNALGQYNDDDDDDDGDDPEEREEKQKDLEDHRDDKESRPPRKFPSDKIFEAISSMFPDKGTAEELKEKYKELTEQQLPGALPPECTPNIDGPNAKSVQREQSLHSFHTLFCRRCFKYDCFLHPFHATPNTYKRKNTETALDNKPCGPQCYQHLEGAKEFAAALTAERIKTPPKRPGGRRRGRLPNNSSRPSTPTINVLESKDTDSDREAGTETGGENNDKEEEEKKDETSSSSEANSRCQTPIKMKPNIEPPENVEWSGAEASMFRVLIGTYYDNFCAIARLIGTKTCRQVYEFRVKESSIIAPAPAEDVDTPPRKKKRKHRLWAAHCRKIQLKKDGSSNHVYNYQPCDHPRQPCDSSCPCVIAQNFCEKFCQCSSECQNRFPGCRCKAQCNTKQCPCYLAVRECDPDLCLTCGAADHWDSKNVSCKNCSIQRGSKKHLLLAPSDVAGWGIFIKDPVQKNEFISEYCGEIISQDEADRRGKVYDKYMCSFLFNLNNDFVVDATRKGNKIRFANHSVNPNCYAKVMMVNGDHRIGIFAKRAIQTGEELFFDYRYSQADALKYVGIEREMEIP
# wild type PRC2 (wtPRC2) complex, sequence (Q15022 whole entry partner): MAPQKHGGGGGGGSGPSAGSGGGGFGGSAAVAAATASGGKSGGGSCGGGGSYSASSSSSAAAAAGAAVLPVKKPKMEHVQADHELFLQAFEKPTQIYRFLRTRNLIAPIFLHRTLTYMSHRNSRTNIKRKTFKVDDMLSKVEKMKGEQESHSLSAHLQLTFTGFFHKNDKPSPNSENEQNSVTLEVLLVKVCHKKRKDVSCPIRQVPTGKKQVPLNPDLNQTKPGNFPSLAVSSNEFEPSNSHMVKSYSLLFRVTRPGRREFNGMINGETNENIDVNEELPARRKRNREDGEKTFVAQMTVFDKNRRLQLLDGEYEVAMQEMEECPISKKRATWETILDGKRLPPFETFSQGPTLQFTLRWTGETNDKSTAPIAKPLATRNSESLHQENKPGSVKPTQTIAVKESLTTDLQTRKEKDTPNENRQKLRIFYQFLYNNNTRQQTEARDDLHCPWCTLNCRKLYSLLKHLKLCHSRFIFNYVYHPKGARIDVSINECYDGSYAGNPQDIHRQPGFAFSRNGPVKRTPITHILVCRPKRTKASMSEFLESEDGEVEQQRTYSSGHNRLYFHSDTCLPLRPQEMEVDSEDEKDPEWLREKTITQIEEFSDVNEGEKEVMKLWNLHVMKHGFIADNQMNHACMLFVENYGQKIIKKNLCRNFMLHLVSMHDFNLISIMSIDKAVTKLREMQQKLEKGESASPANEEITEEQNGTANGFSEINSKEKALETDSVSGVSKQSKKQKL
# wild type PRC2 (wtPRC2) complex, sequence (Q09028 whole entry partner): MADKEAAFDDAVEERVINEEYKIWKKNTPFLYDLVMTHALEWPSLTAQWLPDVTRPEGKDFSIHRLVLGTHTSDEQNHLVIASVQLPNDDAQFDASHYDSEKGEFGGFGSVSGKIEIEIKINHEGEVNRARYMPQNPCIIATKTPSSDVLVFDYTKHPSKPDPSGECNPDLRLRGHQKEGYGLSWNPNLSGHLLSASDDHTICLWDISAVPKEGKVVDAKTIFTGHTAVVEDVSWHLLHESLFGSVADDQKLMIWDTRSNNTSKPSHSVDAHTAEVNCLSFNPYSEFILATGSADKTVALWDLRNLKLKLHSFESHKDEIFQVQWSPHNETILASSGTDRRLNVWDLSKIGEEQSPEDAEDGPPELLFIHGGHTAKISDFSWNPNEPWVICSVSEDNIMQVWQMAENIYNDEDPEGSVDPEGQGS
# wild type PRC2 (wtPRC2) complex, sequence (Q6ZN18 whole entry partner): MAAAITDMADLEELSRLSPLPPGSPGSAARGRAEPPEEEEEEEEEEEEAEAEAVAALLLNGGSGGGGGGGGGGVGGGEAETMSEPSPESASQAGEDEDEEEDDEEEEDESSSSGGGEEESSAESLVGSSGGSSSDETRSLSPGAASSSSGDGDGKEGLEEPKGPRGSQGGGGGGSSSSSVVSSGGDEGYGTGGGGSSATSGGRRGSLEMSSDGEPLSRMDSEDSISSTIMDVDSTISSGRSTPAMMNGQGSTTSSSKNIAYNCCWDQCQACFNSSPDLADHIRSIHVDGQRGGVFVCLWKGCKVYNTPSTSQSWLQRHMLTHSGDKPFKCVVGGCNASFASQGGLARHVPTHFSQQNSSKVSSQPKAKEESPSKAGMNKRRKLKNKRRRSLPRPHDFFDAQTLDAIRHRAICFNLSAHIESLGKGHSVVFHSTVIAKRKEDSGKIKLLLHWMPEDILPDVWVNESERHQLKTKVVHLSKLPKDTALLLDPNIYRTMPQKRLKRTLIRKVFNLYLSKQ
SMILES,IC50 [1],IC50 [2],IC50 (EED (1-441)-His protein)
"CCN1CCC(S(=O)(=O)c2ccc(-c3ccc(NCc4ccccc4OC)n4cnnc34)cn2)CC1 [Example 143, 8-(6-((1-ethylpiperidin-4-yl)sulfonyl)pyridin-3-yl)-N-(2-methoxybenzyl)-[1,2,4] triazolo[4,3-a]pyridin-5-amine]",323 nM,53.2 nM,31.1 nM
"COc1cccc(F)c1CNc1ccc(-c2cncnc2)c2nncn12 [Example 147, N-(2-fluoro-6-methoxybenzyl)-8-(pyrimidin-5-yl)-[1,2,4]triazolo[4,3-a]pyridin-5-amine]",60.8 nM,42.5 nM,77.4 nM
"COc1cncc(-c2ccc(NCc3c(F)cccc3OC)n3cnnc23)c1 [Example 148, N-(2-fluoro-6-methoxybenzyl)-8-(5-methoxypyridin-3-yl)-[1,2,4] triazolo[4,3-a]pyridin-5-amine]",99.8 nM,60.6 nM,28.9 nM
"CCN1CCC(S(=O)(=O)c2ccc(-c3ccc(NCc4c(F)cccc4OC)n4cnnc34)cn2)CC1 [Example 149, 8-(6-((1-ethylpiperidin-4-yl)sulfonyl)pyridin-3-yl)-N-(2-fluoro-6-methoxybenzyl)-[1,2,4]triazolo[4,3-a]pyridin-5-amine]",27.1 nM,14.9 nM,18.2 nM
"COc1cccc(F)c1CNc1ccc(-c2cnccc2C)c2nncn12 [Example 150, N-(2-fluoro-6-methoxybenzyl)-8-(4-methylpyridin-3-yl)-[1,2,4]triazolo[4,3-a] pyridin-5-amine]",94.8 nM,14.2 nM,35.6 nM
"COc1cccc(F)c1CNc1ccc(-c2ccc(O)nc2)c2nncn12 [Example 151, 5-(5-((2-fluoro-6-methoxybenzyl)amino)-[1,2,4]triazolo[4,3-a]pyridin-8-yl) pyridin-2-ol]",676 nM,80.3 nM,66.4 nM
"CCN1CCN(c2ccc(-c3ccc(NCc4ccccc4OC)n4cnnc34)cc2)CC1 [Example 152, 8-(4-(4-ethylpiperazin-1-yl)phenyl)-N-(2-methoxybenzyl)-[1,2,4]triazolo[4,3-a] pyridin-5-amine]",207 nM,101 nM,65.9 nM
"COc1cccc(F)c1CNc1ccc(-c2ccc(N(C)S(C)(=O)=O)cc2)c2nncn12 [Example 154, N-(4-(5-((2-fluoro-6-methoxybenzyl)amino)-[1,2,4]triazolo[4,3-a]pyridin-8-yl)phenyl)-N-methyl methanesulfonamide]",83.4 nM,4.9 nM,4.5 nM
"COc1cccc(F)c1CNc1ccc(-c2ccc(OCCO)cc2)c2nncn12 [Example 157, 2-(4-(5-((2-fluoro-6-methoxybenzyl)amino)-[1,2,4]triazolo[4,3-a]pyridin-8-yl)phenoxy)ethanol]",152 nM,43.1 nM,40.4 nM
"COc1cccc(F)c1CNc1ccc(-c2cncc(F)c2)c2nncn12 [Example 158, N-(2-fluoro-6-methoxybenzyl)-8-(5-fluoropyridin-3-yl)-[1,2,4]triazolo[4,3-a] pyridin-5-amine]",38.9 nM,19.6 nM,13.8 nM
"COc1cccc(F)c1CNc1ccc(-c2ccc(F)nc2)c2nncn12 [Example 159, N-(2-fluoro-6-methoxybenzyl)-8-(6-fluoropyridin-3-yl)-[1,2,4]triazolo[4,3-a] pyridin-5-amine]",102 nM,41 nM,49 nM
"COc1cccc(F)c1CNc1ccc(-c2cnc(S(C)(=O)=O)c(C)c2)c2nncn12 [Example 160, N-(2-fluoro-6-methoxybenzyl)-8-(5-methyl-6-(methylsulfonyl)pyridin-3-yl)-[1,2,4]triazolo[4,3-a] pyridin-5-amine]",351 nM,14.8 nM,15.7 nM
"COc1cccc(F)c1CNc1ccc(-c2cnc(C)nc2)c2nncn12 [Example 161, N-(2-fluoro-6-methoxybenzyl)-8-(2-methylpyrimidin-5-yl)-[1,2,4] triazolo[4,3-a]pyridin-5-amine]",90.1 nM,26.1 nM,48.7 nM
"COc1cc(F)cc(F)c1CNc1ccc(-c2ccc(CN(C)C)cc2)c2nncn12 [Example 162, N-(2,4-difluoro-6-methoxybenzyl)-8-(4-((dimethylamino)methyl)phenyl)-[1,2,4]triazolo[4,3-a]pyridin-5-amine]",77.5 nM,14.3 nM,16.6 nM
"COc1cccc(F)c1CNc1ccc(-c2ccc(N(C)S(C)(=O)=O)nc2)c2nncn12 [Example 163, N-(5-(5-((2-fluoro-6-methoxybenzyl)amino)-[1,2,4]triazolo[4,3-a]pyridin-8-yl)pyridin-2-yl)-N-methylmethanesulfonamide]",50.5 nM,10.7 nM,16.6 nM
"COc1cccc(F)c1CNc1ccc(-c2ccc(C)nc2)c2nncn12 [Example 164, N-(2-fluoro-6-methoxybenzyl)-8-(6-methylpyridin-3-yl)-[1,2,4]triazolo[4,3-a]pyridin-5-amine]",120 nM,36 nM,33.2 nM
"COc1cccc(F)c1CNc1ccc(-c2cncc(C)c2)c2nncn12 [Example 165, N-(2-fluoro-6-methoxybenzyl)-8-(5-methylpyridin-3-yl)-[1,2,4]triazolo[4,3-a]pyridin-5-amine]",38 nM,14 nM,15.9 nM
"COc1cccc(F)c1CNc1ccc(-c2cccnc2F)c2nncn12 [Example 166, N-(2-fluoro-6-methoxybenzyl)-8-(2-fluoropyridin-3-yl)-[1,2,4]triazolo[4,3-a]pyridin-5-amine]",20.4 nM,33.3 nM,25.2 nM
"COc1cccc(F)c1CNc1ccc(-c2cncc(N3CCCC3=O)c2)c2nncn12 [Example 167, 1-(5-(5-((2-fluoro-6-methoxybenzyl)amino)-[1,2,4]triazolo[4,3-a]pyridin-8-yl)pyridin-3-yl)pyrrolidin-2-one]",679 nM,10.3 nM,13.4 nM
"COc1ccccc1CNc1ccc(-c2ccc(N3CC(C)N(C)CC3C)nc2)c2nncn12 (stereo not drawn) [Example 168, N-(2-methoxybenzyl)-8-(6-(2,4,5-trimethylpiperazin-1-yl)pyridin-3-yl)-[1,2,4] triazolo[4,3-a]pyridin-5-amine]",168 nM,105 nM,50.5 nM
"COc1cccc(F)c1CNc1ccc(-c2ccc(OCCS(C)(=O)=O)cc2)c2nncn12 [Example 169, N-(2-fluoro-6-methoxybenzyl)-8-(4-(2-(methylsulfonyl)ethoxy)phenyl)-[1,2,4]triazolo[4,3-a] pyridin-5-amine]",305 nM,105 nM,84.5 nM
"COc1cccc(F)c1CNc1ccc(-c2c(C)nn(CCO)c2C)c2nncn12 [Example 170, 2-(4-(5-((2-fluoro-6-methoxybenzyl)amino)-[1,2,4]triazolo[4,3-a]pyridin-8-yl)-3,5-dimethyl-1H-pyrazol-1-yl)ethanol]",67.2 nM,18.6 nM,25.8 nM
